In patent US20200165287A1, “SALT OF (SS)-ADENOSYL METHIONINE WITH INOSITOL HEXAPHOSPHATE, AND PROCESS FOR THE PREPARATION THEREOF” (GNOSIS S.p.A., priority 2017, published 2020):

Assays:
[1] = Pharmacokinetic profile in the rat (SAMe plasma levels after oral administration by cannula); type: in vivo, Sprague Dawley rats; conditions: by cannula in water, 134 mg/kg and 95 mg/kg, equal SAMe ion dose, 0-24 h (FIG. 1, FIG. 2)
Description: 70 Sprague Dawley rats (35 male and 35 female), aged 7-9 weeks and weighing 176-200 g, were acclimatized in a cage for two weeks before the start of the treatment, maintained at +22° C. and 55% relative humidity. The rats were fed on 4RF 21 (Mucedola) feed, and weighed before the beginning and at the end of the test. At the time of treatment, 32 animals per group (16 males and 16 females) were selected from those with the most similar weights, and assigned to the two treatments.
The product was administered by cannula, dissolved in water, at two dose levels, namely 134 mg/kg and 95 mg/kg. The rats were fasted overnight before administration and for a further two hours after administration. The two equimolar doses guaranteed an equal intake of SAMe ion.
The blood levels of SAMe were assayed by taking a sample from the tail vein at fixed intervals, at times 0 (pre-administration), 0.5, 1, 1.5, 2, 4, 8 and 24 hours after administration. The blood samples were centrifuged after addition of EDTA to separate the plasma from the cell fraction. The plasma was then analysed by HPLC according to the method reported in Wise, Fullerton J. Liq. Chromatogr. […]
The SAMe plasma concentration values are also used to determine, according to the Area Under Curve (AUC) calculation, the total quantity of active ingredient absorbed, obtaining the values set out in FIG. 2.

[2] = stability test, storage at +25° C. in a thermostatic stove; type: physicochemical
Description: Some samples of the products obtained as described in the previous examples are subjected to stability tests, storing them at +25° C., in a thermostatic stove.
The SAMe ion content analysis (FIG. 3) and the diastereomeric purity relative to the (SS) isomer (FIG. 4) are periodically repeated, and the result is compared with the starting value for the same sample, obtaining the results reported.
The data obtained with the product obtained according to EP 1896489 and two commercial samples of SAMe, 1,4-butanedisulphate salt (SD4 Test 1) and Pates salt (batch S1S1057B), are compared.

[3] = accelerated stability test, thermostatic stove at +55° C., 5 days; type: physicochemical
Description: The product obtained as described in Example 6 (comprising SAMe and phytic acid) and a sample of SAMe inositol hexaphosphate obtained as described in Example 5 are subjected to an accelerated stability test, incubated in a thermostatic stove at +55° C., and the analyses are repeated after 5 days.
The samples are analysed for the following values: • SAMe ion content (total of all enantiomers) determined by HPLC and expressed as % by weight • enantiomeric purity, determined by HPLC and expressed as % of (SS) isomer • active ingredient content, calculated by multiplying the previous two values and expressed as % by weight of (SS)SAMe • overall purity, determined by HPLC as SAMe area/total area of chromatogram, expressed as area %. The figure comprises the values of all known degradation impurities.

Compound	absorption (AUC) and plasma concentration of SAMe versus SAMe Pates [1]	stability of (SS)SAMe isomer content / diastereomeric purity versus starting value (FIG. 4) [2]	Purity (% area), final value ([3]; HPLC SAMe area/total area, after 5 days at +55° C.) [%]	Purity (% area), starting value ([3]; HPLC SAMe area/total area, starting value) [%]	degradation by isomerization of (SS)SAMe after the stress test ([3]; after 5 days at +55° C.)	(SS)SAMe content (active ingredient, SAMe content x enantiomeric purity), final value ([3]; after 5 days at +55° C., % by weight) [%]	(SS)SAMe content (active ingredient, SAMe content x enantiomeric purity), starting value ([3]; starting value, % by weight) [%]
SAMe inositol hexaphosphate [SAMe IP6]	better absorption and a higher plasma concentration of active ingredient						
C[S@@+](CC[C@H](N)C(=O)[O-])C[C@H]1O[C@@H](n2cnc3c(N)ncnc32)[C@H](O)[C@@H]1O.O=P(O)(O)O[C@H]1[C@H](OP(=O)(O)O)[C@@H](OP(=O)(O)O)[C@H](OP(=O)(O)O)[C@@H](OP(=O)(O)O)[C@H]1OP(=O)(O)O [AT1003, SAMe inositol hexaphosphate]		stable for longer	90.0	95.98	maintains an excess of the (SS)SAMe form	21.28	26.59
C[S+](CC[C@H](N)C(=O)[O-])C[C@H]1O[C@@H](n2cnc3c(N)ncnc32)[C@H](O)[C@@H]1O.O=S(=O)(O)CCCCS(=O)(=O)O (some centres unmarked) [SD4 Test 1, reference compound]		stable for longer					
